The record followed here is patent publication US20180318271A1, “Use of PDE4 Inhibitors for the Prophylaxis and/or Therapy of Dyslipoproteinaemia and Related Disorders” (Albert-Ludwigs-Universität Freiburg, priority 2015, published 2018).

The nature of this test: clinical trial: lipoprotein profiles in blood serum of patients treated with a PDE4 inhibitor (ultracentrifugation density separation). It counts as in vivo, human. How it is done:
In a clinical trial, five patients were treated by daily doses of a PDE4 inhibitor. As an exemplifying and representative compound, roflumilast was used as the PDE4 inhibitor. Lipoprotein profiles were measured at start of the therapy (time T0), four weeks after start (T1) and eight weeks after start (T2). Treatment was further monitored thereafter. In an embodiment, a first unit dose ([…]) was administered orally every second day for a period of four weeks, and subsequently the dose was increased to a unit of […] per day until a time of 8 weeks.
For analysing and measuring the lipoprotein profiles and thus the relative concentrations and levels of lipoprotein fractions and the cholesterol and triglyceride amounts per lipoprotein, 10 ml venous blood was drawn at the indicated time Points. Lipoprotein profiles and fractions were determined using density separation by means of ultra-centrifugation and subsequent determination of the lipoprotein components (Baumstark et al., Biochem. Biophys. Acta—Protein Structure and Molecular Enzymology 1037, 48-57 (1990); Frey et al., Eur. J. Appl, Physiol. 60, 441-444 (1990)). The components and parameters determined include cholesterol and triglyceride proportions of HDL and LDL, and of sub-fractions LDL-1 to LDL-6, and HDL-2a-2b and -3. Statistical analysis of the results was carried out by SPSS 23.0.

Setting [1] is: five patients, oral roflumilast, T1 (4 weeks) and T2 (8 weeks) compared to T0, blood serum.
Where [2] appears, read: five patients, oral roflumilast, blood serum.

Consider `O=C(Nc1c(Cl)cncc1Cl)c1ccc(OC(F)F)c(OCC2CC2)c1` [roflumilast, 3-cyclopropylmethoxy-4-difluoromethoxy-N-(3,5-dichloropyrid-4-yl)-benzamide], for which, for the setting “after 12 weeks (not shown)”, the “persistence of the reduction of LDL-C” value is given as “maintained over longer time periods” and the “persistence of the reduction of LDL-TG” value was “maintained over longer time periods”. In addition, under setting [1], the “change of LDL-TG” value is given as “substantially reduced” and the “reduction of LDL-C” value is “approximately 30 mg/dl”. In addition, under setting [2], the “change of HDL-C” value is listed as “Slight reductions” and the “change of HDL-TG” value is given as “Slight reductions”.
